Data on 38 compounds can be found in patent publication US11746098B2, “Proteasome activity enhancing compounds” (Proteostasis Therapeutics, Inc., priority 2018, dated 2023).

pIC50: −log10 of the molar value.

The test concerns the target USP14 (Homo sapiens, UniProt P54578). Briefly: USP14 Inhibition Assay. It is filed as biochemical. The settings on record: average value from a minimum of two experimental determinations, read-out: IC50 Category. The text has this:
The activity of the compound described herein to inhibit USP14 can be measured using previously described methodology [B. H. Lee et al. Nature 2010, 467 (9), 179, the contents of which are expressly incorporated by reference herein].
Example 6: USP14 Inhibition Assay
The pIC50 is −log10 of the IC50, conventionally taken in molar units. `Cc1cc(C(=O)CN2CCC(O)(CN(C)C)C2)c(C)n1-c1ccc(Cl)cc1` (centres unmarked) [Compound 60, 1-(1-(4-Chlorophenyl)-2,5-dimethyl-1H-pyrrol-3-yl)-2-(3-((dimethylamino)methyl)-3-hydroxypyrrolidin-1-yl)ethanone]: the pIC50 is 5.30 to 6.30.
The same measure for `Cc1cc(C(=O)CN2CCCC2)c(C)n1-c1ccc(OC(F)(F)F)cc1` [Compound 61, 1-(2,5-Dimethyl-1-(4-(trifluoromethoxy)phenyl)-1H-pyrrol-3-yl)-2-(pyrrolidin-1-yl)ethanone]: 5.30 to 6.30.
`Cc1cc(C(=O)CN2CCC(O)CC2)c(C)n1-c1ccc(OC(F)(F)F)cc1` [Compound 62, 1-(2,5-dimethyl-1-(4-(trifluoromethoxy)phenyl)-1H-pyrrol-3-yl)-2-(4-hydroxypiperidin-1-yl)ethanone]: the pIC50 was 5.30 to 6.30.
The figure for `COc1ccc(-n2c(C)cc(C(=O)CN3CCCCC3)c2C)cc1F` [Compound 63, 1-(1-(3-Fluoro-4-methoxyphenyl)-2,5-dimethyl-1H-pyrrol-3-yl)-2-(piperidin-1-yl)ethanone] is 5.30 to 6.30; for `COc1ccc(-n2c(C)cc(C(=O)CN3CCC(O)CC3)c2C)cc1F` [Compound 64, 1-(1-(3-Fluoro-4-methoxyphenyl)-2,5-dimethyl-1H-pyrrol-3-yl)-2-(4-hydroxypiperidin-1-yl)ethanone] it is 5.30 to 6.30.
The figure for `Cc1cc(C(=O)CN2CCCCC2)c(C)n1C1CCCCC1` [Compound 65, 1-(1-Cyclohexyl-2,5-dimethyl-1H-pyrrol-3-yl)-2-(piperidin-1-yl)ethanone] is 5.30 to 6.30; for `Cc1cc(C(=O)CNC2CCC(C)CC2)c(C)n1-c1ccc(Cl)cc1` (centres unmarked) [Compound 66, 1-(1-(4-Chlorophenyl)-2,5-dimethyl-1H-pyrrol-3-yl)-2-((4-methylcyclohexyl)amino)ethanone] it is 5.30 to 6.30; for `Cc1cc(C(=O)CNC2CCCCCC2)c(C)n1-c1ccc(Cl)cc1` [Compound 67, 1-(1-(4-Chlorophenyl)-2,5-dimethyl-1H-pyrrol-3-yl)-2-(cycloheptylamino)ethanone] it is 5.30 to 6.30.
On to `Cc1cc(C(=O)CN2CCCCC2)c(C)n1-c1ccc(C(F)(F)F)cc1` [Compound 68, 1-(2,5-Dimethyl-1-(4-(trifluoromethyl)phenyl)-1H-pyrrol-3-yl)-2-(piperidin-1-yl)ethanone], for which the negative logarithm of the IC50 (pIC50) was 5.30 to 6.30.
The figure for `Cc1cc(C(=O)CN2CCCCC2)c(C)n1-c1ccc(F)c(F)c1` [Compound 69, 1-(1-(3,4-Difluorophenyl)-2,5-dimethyl-1H-pyrrol-3-yl)-2-(piperidin-1-yl)ethanone] is 5.30 to 6.30.
The figure for `Cc1cc(C(=O)CN2CCC(O)CC2)c(C)n1-c1ccc(F)c(F)c1` [Compound 70, 1-(1-(3,4-Difluorophenyl)-2,5-dimethyl-1H-pyrrol-3-yl)-2-(4-hydroxypiperidin-1-yl)ethanone] is 5.30 to 6.30; for `Cc1cc(C(=O)CC2CCCCN2)c(C)n1-c1ccc(Cl)cc1` (centres unmarked) [Compound 71, 1-(1-(4-Chlorophenyl)-2,5-dimethyl-1H-pyrrol-3-yl)-2-(piperidin-2-yl)ethanone] it is 5.30 to 6.30.
The same measure for `Cc1cc(C(=O)CC2CCCCN2C)c(C)n1-c1ccc(Cl)cc1` (centres unmarked) [Compound 72, 1-(1-(4-Chlorophenyl)-2,5-dimethyl-1H-pyrrol-3-yl)-2-(1-methylpiperidin-2-yl)ethanone]: 5.30 to 6.30.
As to `Cc1cc(C(=O)CN2CCC(O)CC2)c(C)n1-c1ccc(F)cc1` [Compound 73, 1-(1-(4-Fluorophenyl)-2,5-dimethyl-1H-pyrrol-3-yl)-2-(4-hydroxypiperidin-1-yl)ethanone], the pIC50 was 5.30 to 6.30.
In the case of `Cc1cc(C(=O)CN2CCC(F)CC2)c(C)n1-c1ccc(F)cc1` [Compound 74, 1-(1-(4-Fluorophenyl)-2,5-dimethyl-1H-pyrrol-3-yl)-2-(4-fluoropiperidin-1-yl)ethanone], the negative logarithm of the IC50 (pIC50) was 5.30 to 6.30.
The figure for `Cc1cc(C(=O)CN2CCC(OCC(=O)NC3CC3)CC2)c(C)n1-c1ccc(F)cc1` [Compound 75, N-Cyclopropyl-2-((1-(2-(1-(4-fluorophenyl)-2,5-dimethyl-1H-pyrrol-3-yl)-2-oxoethyl)piperidin-4-yl)oxy)acetamide] is 5.30 to 6.30; for `Cc1cc(C(=O)CN2CCCCC2)c(C)n1C1CCC(F)(F)CC1` [Compound 76, 1-(1-(4,4-Difluorocyclohexyl)-2,5-dimethyl-1H-pyrrol-3-yl)-2-(piperidin-1-yl)ethanone] it is 5.30 to 6.30.
The same measure for `Cc1cc(C(=O)CNCCO)c(C)n1-c1ccc(C#N)cc1` [Compound 77, 4-(3-(2-((2-Hydroxyethyl)amino)acetyl)-2,5-dimethyl-1H-pyrrol-1-yl)benzonitrile]: 5.30 to 6.30; for `CCNC(=O)COC1CCN(CC(=O)c2cc(C)n(-c3ccc(Cl)cc3)c2C)CC1` [Compound 79, 2-((1-(2-(1-(4-Chlorophenyl)-2,5-dimethyl-1H-pyrrol-3-yl)-2-oxoethyl)piperidin-4-yl)oxy)-N-ethylacetamide]: greater than 6.30.
For `Cc1cc(C(=O)CN2CCC(OCC(=O)N3CCCCC3)CC2)c(C)n1-c1ccc(Cl)cc1` [Compound 80, 1-(1-(4-Chlorophenyl)-2,5-dimethyl-1H-pyrrol-3-yl)-2-(4-(2-oxo-2-(piperidin-1-yl)ethoxy)piperidin-1-yl)ethanone], the pIC50 was greater than 6.30.
`Cc1cc(C(=O)CN2CCCCC2)c(C)n1-c1ccc(C#N)cc1` [Compound 81, 4-(2,5-Dimethyl-3-(2-(piperidin-1-yl)acetyl)-1H-pyrrol-1-yl)benzonitrile]: the pIC50 is greater than 6.30.
The figure for `CCCNC(=O)COC1CCN(CC(=O)c2cc(C)n(-c3ccc(Cl)cc3)c2C)CC1` [Compound 83, 2-((1-(2-(1-(4-Chlorophenyl)-2,5-dimethyl-1H-pyrrol-3-yl)-2-oxoethyl)piperidin-4-yl)oxy)-N-propylacetamide] is greater than 6.30; for `Cc1cc(C(=O)CN2CCC(OCC(=O)NC(C)(C)C)CC2)c(C)n1-c1ccc(Cl)cc1` [Compound 84, N-(tert-Butyl)-2-((1-(2-(1-(4-chlorophenyl)-2,5-dimethyl-1H-pyrrol-3-yl)-2-oxoethyl)piperidin-4-yl)oxy)acetamide] it is greater than 6.30; for `Cc1cc(C(=O)CN2CCCC2)c(C)n1-c1ccc(C#N)cc1` [Compound 85, 4-(2,5-Dimethyl-3-(2-(pyrrolidin-1-yl)acetyl)-1H-pyrrol-1-yl)benzonitrile] it is greater than 6.30.
Take `Cc1c(C(=O)CN2CCCCC2)cc(C2CC2)n1-c1ccc(Cl)cc1` [Compound 90, 1-(1-(4-Chloropheny1)-5-cyclopropyl-2-methyl-1H-pyrrol-3-yl)-2-(piperidin-1-yl)ethanone]: the pIC50 was greater than 6.30.
The figure for `Cc1c(C(=O)CN2CCCCC2)ccn1-c1ccc(Cl)cc1` [Compound 91, 1-(1-(4-Chlorophenyl)-2-methyl-1H-pyrrol-3-yl)-2-(piperidin-1-yl)ethanone] is greater than 6.30.
The same measure for `Cc1cc(C(=O)CN2CCCC2)n(C)c1-c1ccc(Cl)cc1` [Compound 92, 1-(5-(4-Chlorophenyl)-1,4-dimethyl-1H-pyrrol-2-yl)-2-(pyrrolidin-1-yl)ethanone]: greater than 6.30.
The same measure for `Cc1c(C(=O)CN2CCCCC2)cn(C)c1-c1ccc(Cl)cc1` [Compound 93, 1-(5-(4-Chlorophenyl)-1,4-dimethyl-1H-pyrrol-3-yl)-2-(piperidin-1-yl)ethanone]: greater than 6.30; for `Cc1c(C(=O)CN2CCC(O)CC2)cn(C)c1-c1ccc(Cl)cc1` [Compound 94, 1-(5-(4-Chlorophenyl)-1,4-dimethyl-1H-pyrrol-3-yl)-2-(4-hydroxypiperidin-1-yl)ethanone]: greater than 6.30.
`Cc1cc(C(=O)CN2CCC(O)CC2)n(C)c1-c1ccc(Cl)cc1` [Compound 95, 1-(5-(4-Chlorophenyl)-1,4-dimethyl-1H-pyrrol-2-yl)-2-(4-hydroxypiperidin-1-yl)ethanone]: the pIC50 is greater than 6.30.
In the case of `Cc1cc(C(=O)CN2CCCCC2)n(C)c1-c1ccc(Cl)cc1` [Compound 96, 1-(5-(4-Chlorophenyl)-1,4-dimethyl-1H-pyrrol-2-yl)-2-(piperidin-1-yl)ethanone], the pIC50 was greater than 6.30.
The figure for `Cc1cc(C(=O)CN2CCCCC2)c(C)n1C1CCC(Cl)(Cl)CC1` [Compound 97, 1-(1-(4,4-Dichlorocyclohexyl)-2,5-dimethyl-1H-pyrrol-3-yl)-2-(piperidin-1-yl)ethanone] is greater than 6.30; for `Cc1cc(C(=O)C[n+]2ccccc2)c(C)n1-c1ccc(Cl)cc1` [Compound 99, 1-(2-(1-(4-Chlorophenyl)-2,5-dimethyl-1H-pyrrol-3-yl)-2-oxoethyl)pyridin-1-ium Chloride] it is greater than 6.30; for `Cc1cc(C=O)c(C)n1-c1ccc(Cl)cc1` [Compound 100, 1-(4-Chlorophenyl)-2,5-dimethyl-1H-pyrrole-3-carbaldehyde] it is less than 5.30.
On to `Cc1cc(C(=O)CNCCO)c(C)n1-c1ccc(Cl)cc1` [Compound 101, 1-(1-(4-Chlorophenyl)-2,5-dimethyl-1H-pyrrol-3-yl)-2-((2-hydroxyethyl)amino)ethan-one], for which the pIC50 is less than 5.30.
The same measure for `Cc1cc(C(=O)CNCC2COC(C)(C)O2)c(C)n1-c1ccc(C#N)cc1` (centres unmarked) [Compound 102, 4-(3-(2-(((2,2-Dimethyl-1,3-dioxolan-4-yl)methyl)amino)acetyl)-2,5-dimethyl-1H-pyrrol-1-yl)benzonitrile]: less than 5.30; for `Cc1cc(C(=O)CN2CCCCC2)c(C)n1[C@H]1CC[C@@H](C(N)=O)CC1` [Compound 103, cis-4-(2,5-Dimethyl-3-(2-(piperidin-1-yl)acetyl)-1H-pyrrol-1-yl)cyclohexanecarboxamide]: less than 5.30; for `Cc1cc(C(=O)CN2CCCCC2)c(C)n1[C@H]1CC[C@@H](C#N)CC1` [Compound 105, cis-(2,5-Dimethyl-3-(2-(piperidin-1-yl)acetyl)-1H-pyrrol-1-yl)cyclohexanecarbonitrile]: less than 5.30.
